Structures can show the parent of a compound that is named as a salt. Where two headings read alike, the source gives them in different places.
Key:
Type in all cases: cell-based
[1] = test system: Streptococcus mutans culture (ATCC 25175); test: Biofilm Inhibition Test: concentration of compound to inhibit biofilm formation at varied sucrose; settings: tested at 50 or 150 millimolar
Procedure: Compounds of the dental compositions of the invention, and comparative compounds, were evaluated for biofilm inhibition activity. Composite dental restorative (available under the trade designation “FILTEK SUPREME” from 3M ESPE Dental Products, St. Paul, Minn.) was placed in a 15 millimeter by 1 millimeter stainless steel die. The open ends of the die were then covered with polyester film and the die was subjected to a pressure of 68.95 MPa using a hydraulic press. While the die containing the composite restorative was under compression, the composite was irradiated for two minutes using a Model ACE light source (available from SCHOTT North America, Inc., Auburn, N.Y.). The discs of cured composite restorative were then further cured using a Model UniXS light box (available from Heraeus Kulzer, Inc., Armonk, N.Y.) for 1.5 minutes.
(§1) The cured discs of composite restorative were then immersed in ten milliliters of Streptococcus mutans culture (ATCC 25175; 10^6 CFU/mL) prepared in brain heart infusion broth that contained 1.0 weight percent sucrose and 1 weight percent of a compound of the dental composition. The samples were incubated at 37° C. for approximately twenty hours, after which time the cured discs were removed from the broth and were gently rinsed with water. Each disc was placed in a separate test tube containing five milliliters of 1M aqueous sodium hydroxide solution, and each test tube was then sonicated for two minutes using a model SH1012-40-8 ultrasonic generator (manufactured by Branson Ultrasonics Corp., Danbury, Conn.) for two minutes to dislodge biofilm on the disc. The optical absorbance (optical density) of each aqueous sodium hydroxide solution was then measured at 550 nm using a Model ULTROSPEC III UV-visible spectrophotometer (manufactured by Pharmacia AB, Uppsala, Sweden). For each compound of the dental composition, five discs were separately incubated in broth and were evaluated separately to provide five optical density measurements. The average of the five optical density measurements was then calculated. […] The average optical density of the control or comparative samples was determined as described above. The ratio, expressed as a percentage, of the average optical density for each compound sample to the average optical density for a control sample was calculated by dividing the average optical density for each compound sample by the average optical density for a control sample and multiplying the result by one hundred. The ratio was considered to be proportional to the average amount of biofilm on the five cured discs, i.e., relatively low average optical density ratio was considered to be indicative of inhibition of biofilm formation. The ratio for the control was 100%.
During the procedure for the Quantitative Biofilm Inhibition Test, each cured disc was visually examined after it was removed from the broth (and rinsed with water) and before it was placed in a test tube containing five milliliters of 1M aqueous sodium hydroxide solution. The presence or absence of visible biofilm on a disc was noted.
The Biofilm Inhibition Test was carried out, using four compounds of the dental composition, in broth containing 1.0, 2.5, or 5.0 weight percent sucrose and the exemplary compounds of the dental composition at a concentration of either 50 millimolar or 150 millimolar. In Table 2, the millimolar concentration of compound that inhibited biofilm formation is given for each concentration of sucrose. An entry of “n/t” means that the compound was not tested in broth containing the corresponding concentration of sucrose.

[2] = test system: Streptococcus mutans; test: Bacterial Kill Rate Test
Procedure: Compounds of the dental compositions of the invention were evaluated for extent of bacterial kill in culture. Overnight cultures of Streptococcus mutans in brain heart infusion broth (10^6 CFU/mL) was mixed with a 0.1 weight percent, 0.5 weight percent, or 1.0 weight percent aqueous solution of each compound of the dental composition. After a period of 2, 5, or 10 minutes, 1.0 mL of the mixture was transferred via pipette into a first tube containing 9.0 mL of Letheen broth to provide a 10^−1 dilution. The contents of the tube were mixed using a vortex mixer. A 1.0 mL aliquot of this sample was transferred via pipette into a second tube containing 9.0 mL of Letheen broth to provide a 10^−2 dilution. A 0.1 mL aliquot of each dilution was plated and spread in duplicate on sheep blood agar in Petri dishes, using a “hockey stick” applicator, to provide 10^−2 and 10^−3 dilutions, respectively, on each plate. The plates were incubated at 37° C. for a period of 48 to 72 hours, and then the colony forming units were counted. The CFU counts were compared and the log reduction in the counts were calculated. In Table 3, the bacteria count reduction (log reduction) is the difference between the log of the initial bacteria count and the log of the bacteria count after 2, 5, and 10 minutes.

[3] = test system: Streptococcus mutans culture (ATCC 25175); test: Qualitative Biofilm Inhibition Test; design: key: +: refers to a visual assessment that a compound inhibited biofilm formation; −: refers to a visual assessment that either a compound did not inhibit biofilm formation, or that bacteria grew in the culture broth; settings: 1 weight percent compound; visible biofilm on disc after incubation and rinse
Procedure: During the procedure for the Quantitative Biofilm Inhibition Test, each cured disc was visually examined after it was removed from the broth (and rinsed with water) and before it was placed in a test tube containing five milliliters of 1M aqueous sodium hydroxide solution. The presence or absence of visible biofilm on a disc was noted. The Quantitative Biofilm Inhibition Test was carried out using five compounds of the dental composition and eleven comparative compounds, each at a concentration of 1 weight percent. […] In addition, the Qualitative Biofilm Inhibition Test was carried out for each Example and Comparative Example, in which each disc was visually examined before it was placed in the tube containing the aqueous sodium hydroxide solution.

[4] = test system: Streptococcus mutans culture (ATCC 25175); test: Quantitative Biofilm Inhibition Test; settings: for activity at 1 % w/w: Streptococcus mutans, ATCC25175, 20 h, read-out: OD Ratio
Procedure: Compounds of the dental compositions of the invention, and comparative compounds, were evaluated for biofilm inhibition activity. Composite dental restorative (available under the trade designation “FILTEK SUPREME” from 3M ESPE Dental Products, St. Paul, Minn.) was placed in a 15 millimeter by 1 millimeter stainless steel die. […] While the die containing the composite restorative was under compression, the composite was irradiated for two minutes using a Model ACE light source (available from SCHOTT North America, Inc., Auburn, N.Y.). The discs of cured composite restorative were then further cured using a Model UniXS light box (available from Heraeus Kulzer, Inc., Armonk, N.Y.) for 1.5 minutes.
as §1, with “The” for “The cured discs of composite restorative were then immersed in ten milliliters of Streptococcus mutans culture (ATCC 25175; 10^6 CFU/mL) prepared in brain heart infusion broth that contained 1.0 weight percent sucrose and 1 weight percent of a compound of the dental composition. The”, “The ratio, expressed as a percentage, of the average optical density for each compound sample to the average optical density for a control sample was calculated by dividing the average optical density for each compound sample by the average optical density for a control sample and multiplying the result by one hundred.” left out
The Quantitative Biofilm Inhibition Test was carried out using five compounds of the dental composition and eleven comparative compounds, each at a concentration of 1 weight percent. […] In addition, the Qualitative Biofilm Inhibition Test was carried out for each Example and Comparative Example, in which each disc was visually examined before it was placed in the tube containing the aqueous sodium hydroxide solution.

[5] = 1 weight percent compound, broth with 1.0 weight percent sucrose, approx. twenty hours at 37° C., average OD at 550 nm as percentage of control (100%)

Structure (SMILES)	Bacteria Count Reduction (log reduction) ([2]; 0.1 wt % compound, 2 min.)	Bacteria Count Reduction (log reduction) ([2]; 0.1 wt % compound, 5 min.)	Bacteria Count Reduction (log reduction) ([2]; 0.1 wt % compound, 10 min.)	Bacteria Count Reduction (log reduction) ([2]; 0.5 wt % compound, 2 min.)	Bacteria Count Reduction (log reduction) ([2]; 0.5 wt % compound, 5 min.)	Bacteria Count Reduction (log reduction) ([2]; 0.5 wt % compound, 10 min.)	Visual Assessment [3]	activity at 1 % w/w [4, 5] [%]	also measured
N[C@H]1C(O)O[C@H](CO)[C@@H](O)[C@@H]1O (stereo partly drawn) [Glucosamine Sulfate, D-glucosamine]	0.95	0.75	0.87	0.78	0.80	0.81	+		Concentration of Compound to Inhibit Biofilm Formation ([1]; 1 wt% Sucrose): 50 mM; Concentration of Compound to Inhibit Biofilm Formation ([1]; 5 wt% Sucrose): 150 mM; Bacteria Count Reduction (log reduction) ([2]; 1.0 wt % compound, 2 min.): 0.95 log reduction; Bacteria Count Reduction (log reduction) ([2]; 1.0 wt % compound, 5 min.): 0.89 log reduction; Bacteria Count Reduction (log reduction) ([2]; 1.0 wt % compound, 10 min.): 0.97 log reduction; OD Ratio [4, 5]: 2%
CC(=O)N[C@H]1C(O)O[C@H](CO)[C@H](O)[C@@H]1O (stereo partly shown) [N-Acetylgalactosamine]							−	138	
N[C@H]1C(O)O[C@H](CO)[C@H](O)[C@@H]1O (stereo partly drawn) [Galactosamine HCl, D-galactosamine]	1.13	1.00	0.96	0.89	1.08	1.31	+	0	
OC[C@H]1O[C@@H](O[C@@H]2[C@@H](O)[C@H](O[C@@H]3[C@@H](O)[C@H](O[C@H]4[C@H](O)[C@@H](CO)OC(O)[C@@H]4O)O[C@H](CO)[C@H]3O)O[C@H](CO)[C@H]2O)[C@H](O)[C@@H](O)[C@@H]1O (stereo partly shown) [Laminaritetraose]							−		OD Ratio [4, 5]: 97%
CC(=O)N[C@@H]1C(O)O[C@H](CO)[C@@H](O)[C@@H]1O (stereo partly shown) [N-Acetylmannosamine, reference compound]				0.93	1.54	1.61	−	51	
OC[C@H]1O[C@@H](OC[C@H]2O[C@@H](O)[C@H](O)[C@@H](O)[C@@H]2O)[C@H](O)[C@@H](O)[C@@H]1O [beta-Gentiobiose]							−		OD Ratio [4, 5]: 124%
N[C@@H]1C(O)O[C@H](CO)[C@@H](O)[C@@H]1O (stereo partly drawn) [Mannosamine HCl, D-mannosamine]	1.01	0.82	0.95	0.96	0.98	1.00	+	0	Concentration of Compound to Inhibit Biofilm Formation ([1]; 1 wt% Sucrose): 50 mM; Concentration of Compound to Inhibit Biofilm Formation ([1]; 2.5 wt% Sucrose): 50 mM; Concentration of Compound to Inhibit Biofilm Formation ([1]; 5 wt% Sucrose): 50 mM; Bacteria Count Reduction (log reduction) ([2]; 1.0 wt % compound, 2 min.): 0.96 log reduction; Bacteria Count Reduction (log reduction) ([2]; 1.0 wt % compound, 5 min.): 1.09 log reduction; Bacteria Count Reduction (log reduction) ([2]; 1.0 wt % compound, 10 min.): 0.99 log reduction
O=C(CO)[C@@H](O)[C@@H](O)[C@H](O)CO [D-Tagatose]							−	145	
OC[C@H]1O[C@@H](O[C@H]2[C@H](O)[C@@H](O)C(O)O[C@@H]2CO)[C@H](O)[C@@H](O)[C@H]1O (stereo partly shown) [Lactose]							−		activity at 1 % w/w [4]: 82%
O=C[C@H](O)[C@@H](O)[C@@H](O)[C@H](O)CO [Galactose]							−	87	
C[C@H](O)[C@@H](O)[C@@H](O)[C@H](O)C=O [Fucose]							−	121	
CC(=O)N[C@H]1C(O)O[C@H](CO)[C@@H](O)[C@@H]1O (stereo partly shown) [N-Acetylglucosamine, reference compound]	1.09	1.02	1.04	1.12	1.16	0.99	−	83	Bacteria Count Reduction (log reduction) ([2]; 1.0 wt % compound, 2 min.): 1.05 log reduction; Bacteria Count Reduction (log reduction) ([2]; 1.0 wt % compound, 5 min.): 1.12 log reduction; Bacteria Count Reduction (log reduction) ([2]; 1.0 wt % compound, 10 min.): 1.06 log reduction
OC[C@@H](O)[C@H](O)[C@@H](O)CO [Xylitol]							−	123	

From US8329674B2, “Film forming dental compositions and related methods” (3M Innovative Properties Company, priority 2007, dated 2012)
